According to patent publication US11510886B2, “Metformin amino acid compounds and methods of using the same” (Laboratorios Silancs S.A. DE C.V., priority 2016, dated 2022):
Read-outs that look alike come from different tables or passages of the source.

What was measured:
[1] = STZ-diabetic male rats, mean ± SD; for Absolute body weight, Day −3 (before STZ administration): baseline before STZ and before first TI/RI administration; for Absolute body weight, Day −1 / Absolute body weight, Day −2 (distribution of groups): before first TI/RI administration
[2] = rat, in vivo, po, 250 mg/kg
blood glucose level = assay: Effect of metformin compounds on the glucokinetic profile after oral glucose overload; type: in vivo, Rat; conditions: for blood glucose level vs vehicle, after the oral glucose overload: 750 mg/kg for five days, glucose 3 g/kg, isolated time points 0.25-4 hours; for Blood glucose level, 0.25 h post-glucose overload / Blood glucose level, pre-glucose overload / Blood glucose level, 1 h post-glucose overload / Blood glucose level, 4 h post-glucose overload: *p<0.05 vs vehicle
[3] = for Body weight (g) On administration day / Body weight (g) On distribution day / Body weight (g) On first administration day: Mean ± SD; for Body weight (g) On distribution day: before dosing
[4] = terms of European Pharmacopeia 7.0 section 5.11
[5] = test system: rat model of streptozotocin-induced diabetes; assay: Blood glucose levels in rat model of streptozotocin-induced diabetes, 14 days oral; conditions: for Blood glucose levels before TI/RI administration, Day −3 (before STZ administration): rats, baseline before STZ and before first TI/RI administration
C2C12 myotubes = assay: Glucose in C2C12 myotubes cultured with M1 macrophage conditioned medium; type: cell-based, Mice; conditions: macrophages treated with 10 mM; glucose adjusted to 100 mg/100 mL (FIG. 95)
Protocol: FIG. 95. C2C12 myotubes, treated with a conditioned RAW264.7 M1 macrophages medium (stimulated with LPS and IFN-γ [M1]), accumulate glucose in the culture medium: SLN compounds reduce the “hyperglycemic” effect of the M1 medium. […]; then, the culture media were collected, and their glucose concentration adjusted to 100 mg/100 mL and used to culture C2C12 myoblasts that had been previously differentiated to myotubes in DMEM supplemented with 2% horse serum for 5 days. The glucose concentration in myotubes was determined at several times with a Glucocard (Arkray). C2C12 myotubes, cultured with conditioned media of non-stimulated (cells) macrophages, or similarly stimulated but not treated with a SLN (M1), were used as controls. The initial glucose levels (time 0) are used as a reference (100%) in each of the series.
[…]. Then the culture media were collected, their glucose concentration adjusted to 100 mg/100 mL and used to culture C2C12 myoblasts that had been previously differentiated to myotubes in DMEM supplemented with 2% horse serum for 5 days. The glucose concentration of the myotube cultures was determined at different times with Glucocard (Arkray). The controls used were the C2C12 cultured with media conditioned with no stimulated macrophages (cells) or with M1 conditioned media. The initial glucose levels (time 0) were used as a reference (100%) in each series.

GLUT4 = assay: GPBP-1 and GLUT4 distribution in C2C12 cells (FIGS. 77 and 78); type: cell-based, Mice
Protocol: FIG. 77. Effects of no treatment, insulin, SLN1, SLN1 and insulin, SLN10, and SLN10 and insulin on GPBP-1 and GLUT-4 distribution in non-fused C2C12 cells after a 30 minute treatment.
FIG. 78. C2C12 cells that expressed GLUT4-GFP constitutively were incubated with SLN1 or SLN10 10 mM, or with the corresponding vehicle (control), and GLUT4 distribution was analyzed by using immunofluorescence and confocal microscopy.

[6] = rat, 750 mg/kg referred to metformin base, mean ± SD
[7] = Groups L-U, 750 mg/kg, first column of this head
[8] = Groups L-U, 750 mg/kg, second column of this head

| Compound | Absolute body weight, Day −3 (before STZ administration) [1] | Absolute body weight, Day −1 [1] | AUC(0-24) [2] | Cmax [2] | Metformin base concentration in plasma, 0.5 h post-administration [2] | Metformin base concentration in plasma, 1 h post-administration [2] | Metformin base concentration in plasma, 2 h post-administration [2] | Metformin base concentration in plasma, 4 h post-administration [2] | Metformin base concentration in plasma, 8 h post-administration [2] | Metformin base concentration in plasma, 24 h post-administration [2] | blood glucose level vs vehicle, after the oral glucose overload (blood glucose level; Dunn's test) | Blood glucose level, 0.5 h post-glucose overload (blood glucose level; [6]) | Blood glucose level, 2 h post-glucose overload (blood glucose level; [6]) | Blood glucose level, 6 h post-glucose overload (blood glucose level; [6]) | Body weight (g) On administration day ([3]; Groups B-K, 250 mg/kg) | Body weight (g) On distribution day ([3]; Groups B-K, 250 mg/kg) | Body weight (g) On distribution day ([3]; Groups L-U, 750 mg/kg) | Body weight (g) On first administration day [3, 7] | Body weight (g) On first administration day [3, 8] | Blood glucose levels before TI/RI administration, Day −3 (before STZ administration) ([5]; mean ± SD) | further results |
| --- | --- | --- | --- | --- | --- | --- | --- | --- | --- | --- | --- | --- | --- | --- | --- | --- | --- | --- | --- | --- | --- |
| CN(C)C(=N)NC(=N)N.C[C@H](N)C(=O)O [Metformin alaninate, metformin alaninate] | 232.07 ± 6.17 g | 208.00 ± 2.65 g | 126.09 µg·h/mL | 16.40 µg/mL | 14.77 ± 3.29 µg/mL | 13.00 ± 1.39 µg/mL | 14.97 ± 3.57 µg/mL | 16.40 ± 5.23 µg/mL | 3.56 ± 1.19 µg/mL | 0.22 ± 0.08 µg/mL | statistically significant decreases | 94.75 ± 13.52 mg/dL | 87.75 ± 9.00 mg/dL | 84.00 ± 7.83 mg/dL | 202.49 ± 12.79 g | 187.52 ± 10.28 g | 186.18 ± 8.04 g | 200.80 ± 10.15 g | 195.43 ± 11.23 g | 121.33 ± 6.51 mg/dL | Blood glucose level, 0.25 h post-glucose overload (blood glucose level; [6]): 90.50 ± 13.72 mg/dL; Blood glucose level, pre-glucose overload (blood glucose level; [6]): 82.25 ± 7.68 mg/dL; macroscopic necropsy findings ([3]; 750 mg/kg for five days): small additional lobe; Physical form (hygroscopicity) ([4]; listed as 13. ALANINE): Hygroscopic solid; Physical form (hygroscopicity) ([4]; listed as alanine): hygroscopic; blood glucose levels 2 hours after administration on day 2 vs diabetic animals treated with vehicle ([5]; diabetic rats, 250 mg/kg as metformin base): significantly lower blood glucose levels |
| CC[C@H](C)[C@H](N)C(=O)O.CN(C)C(=N)NC(=N)N [Metformin isoleucinate, metformin isoleucinate] | 224.63 ± 9.17 g | 211.30 ± 7.51 g | 148.77 µg·h/mL | 21.43 µg/mL | 12.53 ± 1.91 µg/mL | 14.47 ± 2.58 µg/mL | 10.05 ± 2.33 µg/mL | 21.43 ± 3.35 µg/mL | 4.94 ± 0.80 µg/mL | 0.24 ± 0.08 µg/mL | statistically significant decreases | 87.75 ± 12.97 mg/dL | 76.75 ± 11.44 mg/dL | 70.75 ± 17.04 mg/dL | 197.30 ± 10.62 g | 189.10 ± 7.62 g | 190.40 ± 7.71 g | 203.33 ± 5.11 g | 196.80 ± 11.54 g | 115.33 ± 4.93 mg/dL | Absolute body weight, Day −2 (distribution of groups) [1]: 225.17 ± 10.85 g; blood glucose level vs vehicle, before the oral glucose overload (blood glucose level; 750 mg/kg (referred to metformin base) once a day for five days, Dunn's test): statistically significant decrease; blood glucose level vs vehicle, after the oral glucose overload (blood glucose level; Dunn's test, listed as metformin isoleucinate): statistically significant decrease; Blood glucose level, 1 h post-glucose overload (blood glucose level; [6]): 89.75 ± 19.77 mg/dL; Blood glucose level, 4 h post-glucose overload (blood glucose level; [6]): 80.50 ± 7.51 mg/dL; Physical form (hygroscopicity) ([4]; listed as 12. ISOLEUCIN): Hygroscopic solid; Physical form (hygroscopicity) ([4]; listed as isoleucine): hygroscopic |
| Metformin glycinate |  |  |  |  |  |  |  |  |  |  |  |  |  |  |  |  |  |  |  |  | glucose concentration in myotubes kept in M1 macrophage-conditioned medium (C2C12 myotubes): kept values at “normoglycemic” levels; GLUT4 distribution (GLUT4): very intense accumulation of GLUT4 in the perinuclear region and in the plasma membrane |
| insulin: insulin, comparator for GLUT4 distribution |  |  |  |  |  |  |  |  |  |  |  |  |  |  |  |  |  |  |  |  | GLUT4 distribution (GLUT4): GLUT4 distribution to the cell membrane increased |
| metformin leucinate | 234.57 ± 1.87 g | 207.93 ± 0.99 g | 133.32 µg·h/mL | 15.43 µg/mL | 10.21 ± 1.77 µg/mL | 15.43 ± 0.81 µg/mL | 12.30 ± 2.41 µg/mL | 12.57 ± 4.13 µg/mL | 5.88 ± 0.80 µg/mL | 0.21 ± 0.08 µg/mL |  | 90.75 ± 28.16 mg/dL | 99.00 ± 2.45 mg/dL | 85.25 ± 2.22 mg/dL | 195.70 ± 9.85 g | 187.38 ± 6.74 g | 185.53 ± 12.04 g | 199.25 ± 9.43 g | 193.53 ± 11.92 g | 118.33 ± 10.02 mg/dL | Absolute body weight, Day −2 (distribution of groups) [1]: 221.90 ± 6.16 g; Blood glucose level, 0.25 h post-glucose overload (blood glucose level; [6]): 87.75 ± 31.40 mg/dL; Blood glucose level, 1 h post-glucose overload (blood glucose level; [6]): 99.50 ± 27.50 mg/dL; Blood glucose level, 3 h post-glucose overload (blood glucose level; rat, 750 mg/kg referred to metformin base, 3 h post-glucose overload, mean ± SD, *p<0.05, **p<0.01 vs vehicle): 91.75 ± 6.99 mg/dL; Blood glucose level, 4 h post-glucose overload (blood glucose level; [6]): 89.75 ± 3.69 mg/dL; Blood glucose level, pre-glucose overload (blood glucose level; [6]): 72.25 ± 9.29 mg/dL; Physical form (hygroscopicity) [4]: Deliquescent; Blood glucose levels before TI/RI administration, Day −1 ([5]; STZ-diabetic rats, before first TI/RI administration, mean ± SD, n.d. = all values beyond ULOD of glucometer (600 mg/dl), § n=1, ¢ n=2): 563.00 ± 36.39 mg/dL |
